What was measured:
[1] = enamel exposed to 10% carbamide peroxide; McCracken and Haywood, 1996; cited from earlier work
[2] = Attin et al., 1997, cited from earlier work
[3] = scanning electron microscope, 5000× magnification
[4] = Protease enhanced tooth whitening, shade comparison of left and right halves of the enamel surface in vitro; design: species or system human; details: protease slurry (papain in distilled water) alone vs untreated half of tooth
Experimental: In this experiment, specimens were prepared in vitro by dividing the enamel surface of the teeth into left and right halves with a visible light cured polymer. This allowed a shade comparison of one side to the other. Specimens were divided into two groups. In both groups, one side of the teeth received an application of protease. Protease slurry was prepared by mixing papain (papaya, crude, Type III) with distilled water and applied via a syringe tip applicator. One group of specimens was then immersed in 30% hydrogen peroxide solution. The other group received no further treatment. Thus, in the first group, one-half of the tooth was first treated with papain and then with hydrogen peroxide, and the second half of the tooth was treated with only hydrogen peroxide. In the other group, one-half of the tooth was treated with papain and the second half of the tooth was untreated.

Molecule: NC(N)=O.OO [carbamide peroxide]
- amount of calcium lost from enamel (average) [1]: 1.06 micrograms/mm^2
- enamel microhardness ([2]; 10% carbamide peroxide (Opalescence®)): significantly decreased

Molecule: F [fluoride]
- hardness of bleached enamel specimens after application ([2]; high concentration fluoride application): restore hardness

Molecule: OO [hydrogen peroxide]
- microscopic pitting of the enamel surface [3]: not seen

B1: papain (protein, UniProt P00784 134-345, looked up)
Papain: IPEYVDWRQKGAVTPVKNQGSCGSCWAFSAVVTIEGIIKIRTGNLNEYSEQELLDCDRRSYGCNGGYPWSALQLVAQYGIHYRNTYPYEGVQRYCRSREKGPYAAKTDGVRQVQPYNEGALLYSIANQPVSVVLEAAGKDFQLYRGGIFVGPCGNKVDHAVAAVGYGPNYILIKNSWGTGWGENGYIRIKRGTGNSYGVCGLYTSSFYPVKN
modifications: crude preparation
notes: Protease slurry prepared by mixing papain (papaya, crude, Type III) with distilled water
- whitening effect (change in shade) of treated tooth side [4]: will remove stains and “whiten” a tooth
